The target of one experiment is AMPA type receptors. Put plainly: 3H-AMPA Binding (Test 1), rat cerebral cortical membrane homogenate. Particulars: 3H-AMPA 5 nM, rat cerebral cortical membranes, pH 7.1, 0° C., 30 min; read-out: TEST 1 IC50 (displacement of 50% of the specific binding of 3H-AMPA). As to the method:
(§1) The pharmacological properties of the compounds of the present invention can be illustrated by determining their capability for displacing radioactively labelled 2-amino-3-hydroxy-5-methyl-4-isoxazolepropionic acid (AMPA) from the AMPA type receptors.
The displacement activity of the compounds may be shown by determining the IC50 value which represents the concentration (μM) which causes a displacement of 50% of the specific binding of ^3 H-AMPA.
^3 H-AMPA Binding (Test 1)
500 μl of thawed rat cerebral cortical membrane homogenate in Tris-HCl (30 mM), CaCl2 (2.5 mM) and KSCN (100 mM) pH 7.1 were incubated at 0° C. for 30 min. with 25 μl ^3 H-AMPA (5 nM final concentration) and the test compound and buffer. Nonspecific binding was determined by incubation with L-glutamic acid (600 μM final concentration). The binding reaction was terminated by adding 5 ml of ice-cold buffer followed by filtration through Whatman GF/C glass fibre filters and 2×5 ml wash with ice-cold buffer. Bound radioactivity was measured by scintillation counting. IC50 was determined by Hill analysis of at least four concentrations of test compound.

Experiment [1] deals with quisqualic acid stimulated spreading depression in chicken retina. Nature of the experiment: Spreading Depression (Test 2), quisqualate stimulated, chicken retina. Format: cell-based. As to conditions: Gallus gallus, 0.25 h, quisqualate 1 μg/ml, 26° C., 15 min incubation with test compound, read-out: TEST 2 IC50 (50% maximal inhibition of quisqualic acid stimulated spreading depression). The procedure:
as §1
The antagonism is measured by determining the IC50 value which represents the concentration which produces a 50% maximal inhibition of quisqualic acid stimulated spreading depression in chicken retina.
Spreading Depression (Test 2)
Chicks (3-10 days old) were decapitated, the eyes enucleated and sectioned along the equatorial plane. […]
The eyes were initially incubated in normal P.S.S. for 15-30 min. and then transferred to P.S.S. containing quisqualate (1 μg/ml). […] The time taken for an S.D. to start in each eye was measured.
After a further 15 min. of incubation in normal P.S.S. the eyes were transferred to normal P.S.S. containing the test compound and incubated for 15 min. […] The time taken for an S.D. to start in each eye was measured again. The eyes were then placed back in normal P.S.S. and after 15 min. the time taken for S.D. to start was measured again, in order to assess the degree of recovery from any drug effects. […]

As a reminder, the IC50 is the concentration at which inhibition is half-maximal. On to `O=c1[nH]c2cc(C(F)(F)F)ccc2n2c(CP(=O)(O)O)nnc12` [Example 20, 1-Phosphonomethyl-7-trifluoromethyl[1,2,4]triazolo[4,3-a]quinoxalin-4(5H)-one], for which the IC50 on AMPA type receptors is 260 nM; in experiment [1], 400 nM.
Consider `O=c1[nH]c2c3ccccc3ccc2n2c(CP(=O)(O)O)nnc12` [Example 30, 3-Phosphonomethylbenzo[f]-1,2,4-triazolo[4,3-a]quinoxalin-12(11H)-one], for which the figures for the IC50 (on AMPA type receptors; in experiment [1]) were 480 nM and 1400 nM, respectively.

Values taken from patent US5559106A, “Heterocyclic compounds, their use and preparation” (Novo Nordisk A/S, priority 1993, dated 1996).
